# Test results published in PMC7053805 (Toxicology in vitro : an international journal published in …, 2019).
# Like-named read-outs stand apart in the source and are kept apart here.
# Legend:
# [1] = Rapid equilibrium dialysis; details: for protein binding in the culture media: serum-supplemented media, rapid equilibrium dialysis
# [2] = smelter workers; ref Ellis et al. (1981); cited from earlier work
# [3] = Chip-to-human extrapolation; details: for predicted renal clearance/GFR ratio from the chip: Chip+Model, ETS=0
# [4] = tested on: Primary human renal proximal tubule epithelial cells (RPTECs); details: for total amount of cadmium assumed accumulated in RPTECs: estimated from measured uptake
# [5] = cited from earlier work
# [6] = human; cited from earlier work
# in vitro [7] = assay: in vitro
# [8] = human, indicated by in vivo renal clearance data; ref Contrepois et al., 1985; cited from earlier work
# in vitro [9] = details: human
# [10] = serum
# [11] = tested on: canine renal tubule cells; details: ref MacKay et al., 1998, cited from earlier work
# [12] = effluent compared against stock solutions
# [13] = kidney tubule chip, adjusted for non-specific binding, both concentrations
molecule,measurement,setting,value
"[Cl][Cd][Cl] [Cadmium, cadmium chloride]",fraction protein-bound in the culture media,[1]; binding to serum proteins in culture media,up to 71%
same,concentrations in human kidney,[2],up to 400 μg/g
same,predicted renal clearance/GFR ratio from the chip,[3]; cadmium 0.05 μM (free 0.0145 μM),0.14±0.05
same,predicted renal clearance/GFR ratio from the chip,[3]; cadmium 0.5 μM (free 0.209 μM),0.39±0.17
same,back-calculated Cu/Cf in the chip,"[3]; from in vivo modeled CLR/GFR ratio 0.26 (cadmium, lower concentration)",68%
same,back-calculated Cu/Cf in the chip,"[3]; from in vivo modeled CLR/GFR ratio 0.29 (cadmium, higher concentration)",71%
same,total amount of cadmium assumed accumulated in RPTECs,[4]; after 22 days at 0.05 μM,3.2 µg/g
same,total amount of cadmium assumed accumulated in RPTECs,[4]; after 22 days at 0.5 μM,16.5 µg/g
same,uptake/reabsorption within the kidney tubule chip,[4]; [12],uptake
same,reabsorption (loss) from adjusted Cout/Cin,[4]; [13],24-43%
same,geometric blood level,"[5]; general population (≥1 year of age) in the USA, ref Agency for Toxic Substances and Disease Registry",~ 0.002 μM
same,Cmax,"[5]; general population, Nigeria, ref Alli, 2015",~100 nM
same,Cmax,"[5]; human occupational, Nigeria, ref Alli, 2015",~1000 nM
"N.N.[Cl][Pt][Cl] [Cisplatin, cisplatin]",recovery from effluent samples,"[4]; cell-seeded chip, at equilibrium",~100%
same,uptake/reabsorption within the kidney tubule chip,[4]; [12],little uptake
same,Cmax,"[5]; human, reported range, ref Verschraagen et al., 2003",1400 to 13900 nM
"CN1CC(=O)NC1=N [Creatinine, creatinine]",fraction unbound,[1],0.934 ± 0.06
same,protein binding in the culture media,[1],minimal protein binding
same,reabsorption (loss) from adjusted Cout/Cin,[4]; human,0-5%
"CNC(C)C1CCC(N)C(OC2C(N)CC(N)C(OC3OCC(C)(O)C(NC)C3O)C2O)O1 (stereo not drawn) [Gentamicin, gentamicin]",serum protein binding,[6],no serum protein binding
same,fraction unbound,in vitro [7]; Free fraction in cell culture media,0.897 ± 0.005
same,uptake/reabsorption within the kidney tubule chip,[4],little uptake
same,reabsorption (loss) from adjusted Cout/Cin,[4]; human,0-5%
same,net uptake by the RPTECs,"[4]; tissue chip, on average, 200 and 600 μM",< 0.5%
same,re-absorption in vivo,[8],around 20%
same,recovery,in vitro [9],~100%
same,Cmax,"[5]; human, in vivo",~50000 nM
same,serum concentrations,[5]; in vivo,5300 ± 1300 ng/mL
same,protein binding in the culture media,[10],minimal protein binding
"O=C(O)C(F)(F)C(F)(F)C(F)(F)C(F)(F)C(F)(F)C(F)(F)C(F)(F)F [PFOA, perfluorooctanoic acid]",protein binding in the culture media,[1],minimal protein binding
same,fraction unbound,in vitro [7],0.986 ± 0.149
same,uptake/reabsorption within the kidney tubule chip,[4]; [12],uptake
same,reabsorption (loss) from adjusted Cout/Cin,[4]; [13],3-13%
same,blood levels,"[5]; occupationally exposed subjects, ref ATSDR, 2018",≤ 24200 nM
inulin,recovery in luminal effluent,[11]; bioreactor with confluent cells,≥ 98.9%
same,recovery in luminal effluent,[11]; blank devices,≤ 7.4%
